Measurements taken from patent US20160374944A1, “COMPOSITIONS AND METHODS FOR TREATING AND PREVENTING CANCER BY TARGETING AND INHIBITING CANCER STEM CELLS” (priority 2011, published 2016).

Assays:
Pancreatic CSCs = experiment: Transwell migration assay; format: cell-based, human; conditions: for migration: EGCG 0-60 μM with or without quercetin 20 μM, 48 hrs
Procedure: (A) Pancreatic CSCs were treated with EGCG (0-60 μM) for 48 h. At the end of incubation period, the expression of Snail, ZEB1 and Slug was measured by q-RT-PCR. […] (B) Transwell migration assay. Pancreatic CSCs were plated in the top chamber of the transwell and treated with EGCG (0-60 μM) for 24 h. Cells migrated to the lower chambered were fixed with methanol, stained with crystal violet and counted. […] (C) Matrigel invasion assay. CSCs were plated onto the Matrigel-coated membrane in the top chamber of the transwell and treated with EGCG (0-60 μM) for 48 h. Cells invaded to the lower chambered were fixed with methanol, stained with crystal violet and counted. […] (D) Effects of EGCG on TCF-1/LEF activity. Pancreatic CSCs were transduced with TCF/LEF responsive GFP/firefly luciferase viral particles (pGreen Fire1-Gli with EF1, System Biosciences). Transduced CSCs were treated with EGCG (0-60) for 48 h and the GFP fluorescence was measured. […] FIG. 42A and FIG. 42B show graphs showing quercetin synergizes with EGCG to inhibit self-renewal capacity, invasion, migration, and TCF/LEF and Gli transcriptional activities in pancreatic CSCs. (A) Effects of EGCG and quercetin on spheroid and colony formation. Upper Panel, uercetin synergizes with EGCG to inhibit spheroid's cell viability. CSCs were seeded in suspension and treated with EGCG (0-60 μM) with or without quercetin (20 μM) for 7 days. At the end of incubation period, all the spheroids were collected and resuspended. Cell viability was measured by trypan blue assay. […] Lower panel, uercetin synergizes with EGCG to inhibit colony formation. […] At the end of incubation period, colonies were counted. […] Cells invaded to the lower chambered were fixed with methanol, stained with crystal violet and counted. […] Cells migrated to the lower chambered were fixed with methanol, stained with crystal violet and counted. […] Apoptosis was measured by TUNEL assay. […] Transduced CSCs were treated with EGCG (40 μM) with or without quercetin (20 μM) for 48 hrs and the luciferase activity was measured.

[1] = test system: Gli transcriptional activity in pancreatic CSCs; experiment: Gli-responsive GFP/firefly luciferase reporter; format: cell-based, human
Procedure: (A) Pancreatic CSCs were treated with rottlerin (0-1 μM) for 24 h. The expression of Patched-1, Smo and Gli-2 was measured by qRT-PCR. […] (B) Pancreatic CSCs were transduced with Gli-responsive GFP/firefly luciferase viral particles (pGreen Fire1-Gli with EF1, System Biosciences). After transduction, culture medium was replaced and CSCs were treated with rottlerin (0-2 μM) for 24 h. Gli-responsive reporter activity was measured using a luciferase assay (Promega Corporation).
FIG. 40A and FIG. 40C are graphs and photographs showing the inhibition of components of sonic hedgehog pathway, Gli transcription and nuclear translocation by EGCG. (A) Inhibition of components of sonic hedgehog pathway and Gli transcription. Pancreatic CSCs were treated with EGCG (0-60 μM) for 36 h. The expression of Smothened (Smo), patched 1 (PTCH1), patched 2 (PTCH2), was measured by q-RT-PCR. […] (B) Inhibition of Gli1 and Gli2 expression and Gli transcription. Pancreatic CSCs were treated with EGCG (0-60 μM) for 36 h. The expression of Gli1 and Gli2 was measured by q-RT-PCR. Gli reporter activity. CSCs were transduced with Gli-responsive GFP/firefly luciferase viral particles (pGreen Fire1-Gli with EF1, System Biosciences). After transduction, culture medium was replaced and CSCs were treated with EGCG (0-60 μM) for 24 h. Gli-responsive reporter activity was measured by luciferase assay (Promega Corporation). […] Stained cells were mounted and visualized under a fluorescence microscope. Blue fluorescence of DAPI was changed to red color for a better contrast.
FIG. 42A and FIG. 42B show graphs showing quercetin synergizes with EGCG to inhibit self-renewal capacity, invasion, migration, and TCF/LEF and Gli transcriptional activities in pancreatic CSCs. […] Cell viability was measured by trypan blue assay. […] At the end of incubation period, colonies were counted. […] Cells invaded to the lower chambered were fixed with methanol, stained with crystal violet and counted. […] Cells migrated to the lower chambered were fixed with methanol, stained with crystal violet and counted. […] Apoptosis was measured by TUNEL assay. […]

Structure (SMILES)	migration (Pancreatic CSCs)	cell migration (Pancreatic CSCs; EGCG 0-60 μM, 24 h)	Gli transcriptional activity ([1]; EGCG 0-60 μM, 24 h, luciferase assay)	Gli transcriptional activity ([1]; EGCG 40 μM with or without quercetin 20 μM, 48 hrs, luciferase)	Gli transcriptional activity ([1]; rottlerin 0-2 μM, 24 h, luciferase assay)
O=C(O[C@@H]1Cc2c(O)cc(O)cc2O[C@@H]1c1cc(O)c(O)c(O)c1)c1cc(O)c(O)c(O)c1 [EGCG, epigallocatechin gallate]	inhibited cell viability in spheroids, colony formation, migration and invasion by CSCs in a dose-dependent manner	inhibited	inhibited Gli transcriptional activity in a dose-dependent manner	inhibited	–
CC(=O)c1c(O)c(C)c(O)c(Cc2c(O)c3c(c(C(=O)/C=C/c4ccccc4)c2O)OC(C)(C)C=C3)c1O [rottlerin]	–	–	–	–	inhibited Gli transcriptional activity in a dose-dependent manner
O=c1c(O)c(-c2ccc(O)c(O)c2)oc2cc(O)cc(O)c12 [quercetin]	effective alone	–	–	–	–
